# Data from PMC7687128, “Extracellular loops matter – subcellular location and function of the lysine transporter Lyp1 from Saccharomyces cerevisiae” (The Febs Journal, 2020).
# Experiments:
# Lyp1 (Lyp1-YPet) [1] = biological target: T1, Lyp1 (Lyp1-YPet) (Saccharomyces cerevisiae, UniProt P32487); assay: competition with […]-lysine uptake in S. cerevisiae cells; assay type: cell-based; conditions: 20 µM [14C]-lysine, 100 mM potassium phosphate, 10 mM glucose, pH 6.0, 30 °C; competitor
# T1 construct: full-length, YPet fluorescent protein fusion, plasmid-expressed in S. cerevisiae, assayed in whole cells
# T1 sequence (P32487 1-611): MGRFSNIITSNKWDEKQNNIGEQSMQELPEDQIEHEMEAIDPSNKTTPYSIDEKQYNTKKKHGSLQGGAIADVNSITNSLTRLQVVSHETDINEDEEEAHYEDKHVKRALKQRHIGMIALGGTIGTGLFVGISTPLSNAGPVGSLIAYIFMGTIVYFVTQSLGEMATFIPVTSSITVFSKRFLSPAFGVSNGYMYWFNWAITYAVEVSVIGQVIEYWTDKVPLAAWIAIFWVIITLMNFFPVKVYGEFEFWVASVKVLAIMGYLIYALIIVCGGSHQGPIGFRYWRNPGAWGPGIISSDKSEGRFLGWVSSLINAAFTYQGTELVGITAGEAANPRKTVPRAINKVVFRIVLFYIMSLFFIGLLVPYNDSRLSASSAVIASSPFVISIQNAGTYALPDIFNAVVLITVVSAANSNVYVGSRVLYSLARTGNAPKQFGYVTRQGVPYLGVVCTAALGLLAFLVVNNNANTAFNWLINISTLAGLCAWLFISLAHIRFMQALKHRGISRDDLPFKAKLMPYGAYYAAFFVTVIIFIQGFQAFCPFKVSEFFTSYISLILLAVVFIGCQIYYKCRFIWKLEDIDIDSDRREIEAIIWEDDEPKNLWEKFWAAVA
# Lyp1 (Lyp1-YPet) [2] = biological target: T2, Lyp1 (Lyp1-YPet) (Saccharomyces cerevisiae, UniProt P32487, G289A/W291A); assay: initial rate of […]-lysine uptake in S. cerevisiae cells; assay type: cell-based; conditions: out-to-in transport; 100 mM potassium phosphate, 10 mM glucose, pH 6.0, 30 °C; labelled compound
# T2 construct: full-length, YPet fluorescent protein fusion, plasmid-expressed in S. cerevisiae, assayed in whole cells
# T2 sequence (P32487 1-611 G289A/W291A): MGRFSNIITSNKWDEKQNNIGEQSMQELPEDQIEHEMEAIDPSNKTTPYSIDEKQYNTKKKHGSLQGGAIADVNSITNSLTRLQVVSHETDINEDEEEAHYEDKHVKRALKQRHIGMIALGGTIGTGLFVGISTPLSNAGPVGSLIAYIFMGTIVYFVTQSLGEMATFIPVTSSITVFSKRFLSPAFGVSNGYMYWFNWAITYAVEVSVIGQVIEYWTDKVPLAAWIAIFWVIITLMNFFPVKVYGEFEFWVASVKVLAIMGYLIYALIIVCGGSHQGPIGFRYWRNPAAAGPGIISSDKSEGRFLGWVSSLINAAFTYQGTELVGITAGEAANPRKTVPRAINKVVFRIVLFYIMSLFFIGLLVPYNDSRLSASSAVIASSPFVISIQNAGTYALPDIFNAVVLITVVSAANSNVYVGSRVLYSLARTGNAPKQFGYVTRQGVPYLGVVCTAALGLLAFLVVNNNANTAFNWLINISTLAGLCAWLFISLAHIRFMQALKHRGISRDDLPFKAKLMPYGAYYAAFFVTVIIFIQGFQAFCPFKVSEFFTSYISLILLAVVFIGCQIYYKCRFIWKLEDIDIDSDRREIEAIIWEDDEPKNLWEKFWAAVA
# Lyp1 (Lyp1-YPet) [3] = biological target: T3, Lyp1 (Lyp1-YPet) (Saccharomyces cerevisiae, UniProt P32487, I280A/G281A/F282A); assay: as above; assay type: cell-based; conditions: out-to-in transport; 100 mM potassium phosphate, 10 mM glucose, pH 6.0, 30 °C; labelled compound
# T3 construct: full-length, YPet fluorescent protein fusion, plasmid-expressed in S. cerevisiae, assayed in whole cells
# T3 sequence (P32487 1-611 I280A/G281A/F282A): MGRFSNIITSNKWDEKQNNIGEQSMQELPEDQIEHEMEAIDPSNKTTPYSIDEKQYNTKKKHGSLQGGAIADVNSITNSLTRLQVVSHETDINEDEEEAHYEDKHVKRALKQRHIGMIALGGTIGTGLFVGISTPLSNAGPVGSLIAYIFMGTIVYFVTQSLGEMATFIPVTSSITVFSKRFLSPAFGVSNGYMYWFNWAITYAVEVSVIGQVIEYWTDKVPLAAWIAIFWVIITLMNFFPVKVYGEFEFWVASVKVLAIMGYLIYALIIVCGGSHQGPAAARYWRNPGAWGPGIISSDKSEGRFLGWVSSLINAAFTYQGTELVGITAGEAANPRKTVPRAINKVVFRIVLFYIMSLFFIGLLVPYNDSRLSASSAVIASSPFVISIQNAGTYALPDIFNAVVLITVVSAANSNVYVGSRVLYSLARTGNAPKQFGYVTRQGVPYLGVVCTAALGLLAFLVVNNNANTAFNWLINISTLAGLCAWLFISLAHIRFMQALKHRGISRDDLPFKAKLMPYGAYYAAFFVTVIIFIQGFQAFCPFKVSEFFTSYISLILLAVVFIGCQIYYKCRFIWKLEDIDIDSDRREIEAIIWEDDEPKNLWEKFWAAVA
# [4] = substrate: NCCCC[C@H](N)C(=O)O; assay: cells, lysate or membranes; assay type: cell-based, Saccharomyces cerevisiae; conditions: out-to-in transport, 100 mM potassium phosphate, 10 mM glucose, pH 6.0, 30 °C, labelled compound
Molecule,% reduction of lysine transport at 100 mM (Lyp1 (Lyp1-YPet) [1]) [%],Km [4] [µM],other results
N=C(N)NCCC[C@H](N)C(=O)O [arginine],> 80,–,–
NCCCC[C@H](N)C(=O)O [L-lysine],–,–,Km (Lyp1 (Lyp1-YPet) [2]): > 100 µM; Km (Lyp1 (Lyp1-YPet) [3]): > 100 µM
C[C@H](N)C(=O)O [alanine],> 80,–,–
N[C@@H](Cc1cnc[nH]1)C(=O)O [histidine],> 80,–,–
"Lyp1 (Lyp1-YPet) (Saccharomyces cerevisiae S288C) (protein, full-length, YPet fluorescent protein fusion, plasmid-expressed in S. cerevisiae, assayed in whole cells) MGRFSNIITSNKWDEKQNNIGEQSMQELPEDQIEHEMEAIDPSNKTTPYSIDEKQYNTKKKHGSLQGGAIADVNSITNSLTRLQVVSHETDINEDEEEAHYEDKHVKRALKQRHIGMIALGGTIGTGLFVGISTPLSNAGPVGSLIAYIFMGTIVYFVTQSLGEMATFIPVTSSITVFSKRFLSPAFGVSNGYMYWFNWAITYAVEVSVIGQVIEYWTDKVPLAAWIAIFWVIITLMNFFPVKVYGEFEFWVASVKVLAIMGYLIYALIIVCGGSHQGPIGFRYWRNPGAWGPGIISSDKSEGRFLGWVSSLINAAFTYQGTELVGITAGEAANPRKTVPRAINKVVFRIVLFYIMSLFFIGLLVPYNDSRLSASSAVIASSPFVISIQNAGTYALPDIFNAVVLITVVSAANSNVYVGSRVLYSLARTGNAPKQFGYVTRQGVPYLGVVCTAALGLLAFLVVNNNANTAFNWLINISTLAGLCAWLFISLAHIRFMQALKHRGISRDDLPFKAKLMPYGAYYAAFFVTVIIFIQGFQAFCPFKVSEFFTSYISLILLAVVFIGCQIYYKCRFIWKLEDIDIDSDRREIEAIIWEDDEPKNLWEKFWAAVA",–,10,–
"Lyp1 (Lyp1-YPet) (Saccharomyces cerevisiae S288C; G292A/G294A/P293A) (protein, full-length, YPet fluorescent protein fusion, plasmid-expressed in S. cerevisiae, assayed in whole cells) MGRFSNIITSNKWDEKQNNIGEQSMQELPEDQIEHEMEAIDPSNKTTPYSIDEKQYNTKKKHGSLQGGAIADVNSITNSLTRLQVVSHETDINEDEEEAHYEDKHVKRALKQRHIGMIALGGTIGTGLFVGISTPLSNAGPVGSLIAYIFMGTIVYFVTQSLGEMATFIPVTSSITVFSKRFLSPAFGVSNGYMYWFNWAITYAVEVSVIGQVIEYWTDKVPLAAWIAIFWVIITLMNFFPVKVYGEFEFWVASVKVLAIMGYLIYALIIVCGGSHQGPIGFRYWRNPGAWAAAIISSDKSEGRFLGWVSSLINAAFTYQGTELVGITAGEAANPRKTVPRAINKVVFRIVLFYIMSLFFIGLLVPYNDSRLSASSAVIASSPFVISIQNAGTYALPDIFNAVVLITVVSAANSNVYVGSRVLYSLARTGNAPKQFGYVTRQGVPYLGVVCTAALGLLAFLVVNNNANTAFNWLINISTLAGLCAWLFISLAHIRFMQALKHRGISRDDLPFKAKLMPYGAYYAAFFVTVIIFIQGFQAFCPFKVSEFFTSYISLILLAVVFIGCQIYYKCRFIWKLEDIDIDSDRREIEAIIWEDDEPKNLWEKFWAAVA",–,63 ± 83,–
"Lyp1 (Lyp1-YPet) (Saccharomyces cerevisiae S288C; F471A/T469A) (protein, full-length, YPet fluorescent protein fusion, plasmid-expressed in S. cerevisiae, assayed in whole cells) MGRFSNIITSNKWDEKQNNIGEQSMQELPEDQIEHEMEAIDPSNKTTPYSIDEKQYNTKKKHGSLQGGAIADVNSITNSLTRLQVVSHETDINEDEEEAHYEDKHVKRALKQRHIGMIALGGTIGTGLFVGISTPLSNAGPVGSLIAYIFMGTIVYFVTQSLGEMATFIPVTSSITVFSKRFLSPAFGVSNGYMYWFNWAITYAVEVSVIGQVIEYWTDKVPLAAWIAIFWVIITLMNFFPVKVYGEFEFWVASVKVLAIMGYLIYALIIVCGGSHQGPIGFRYWRNPGAWGPGIISSDKSEGRFLGWVSSLINAAFTYQGTELVGITAGEAANPRKTVPRAINKVVFRIVLFYIMSLFFIGLLVPYNDSRLSASSAVIASSPFVISIQNAGTYALPDIFNAVVLITVVSAANSNVYVGSRVLYSLARTGNAPKQFGYVTRQGVPYLGVVCTAALGLLAFLVVNNNANAAANWLINISTLAGLCAWLFISLAHIRFMQALKHRGISRDDLPFKAKLMPYGAYYAAFFVTVIIFIQGFQAFCPFKVSEFFTSYISLILLAVVFIGCQIYYKCRFIWKLEDIDIDSDRREIEAIIWEDDEPKNLWEKFWAAVA",–,25 ± 21,–
"Lyp1 (Lyp1-YPet) (Saccharomyces cerevisiae S288C; N390A/Q389A) (protein, full-length, YPet fluorescent protein fusion, plasmid-expressed in S. cerevisiae, assayed in whole cells) MGRFSNIITSNKWDEKQNNIGEQSMQELPEDQIEHEMEAIDPSNKTTPYSIDEKQYNTKKKHGSLQGGAIADVNSITNSLTRLQVVSHETDINEDEEEAHYEDKHVKRALKQRHIGMIALGGTIGTGLFVGISTPLSNAGPVGSLIAYIFMGTIVYFVTQSLGEMATFIPVTSSITVFSKRFLSPAFGVSNGYMYWFNWAITYAVEVSVIGQVIEYWTDKVPLAAWIAIFWVIITLMNFFPVKVYGEFEFWVASVKVLAIMGYLIYALIIVCGGSHQGPIGFRYWRNPGAWGPGIISSDKSEGRFLGWVSSLINAAFTYQGTELVGITAGEAANPRKTVPRAINKVVFRIVLFYIMSLFFIGLLVPYNDSRLSASSAVIASSPFVISIAAAGTYALPDIFNAVVLITVVSAANSNVYVGSRVLYSLARTGNAPKQFGYVTRQGVPYLGVVCTAALGLLAFLVVNNNANTAFNWLINISTLAGLCAWLFISLAHIRFMQALKHRGISRDDLPFKAKLMPYGAYYAAFFVTVIIFIQGFQAFCPFKVSEFFTSYISLILLAVVFIGCQIYYKCRFIWKLEDIDIDSDRREIEAIIWEDDEPKNLWEKFWAAVA",–,7.4 ± 1.0,–
"Lyp1 (Lyp1-YPet) (Saccharomyces cerevisiae S288C; E215A/W217A/Y216A) (protein, full-length, YPet fluorescent protein fusion, plasmid-expressed in S. cerevisiae, assayed in whole cells) MGRFSNIITSNKWDEKQNNIGEQSMQELPEDQIEHEMEAIDPSNKTTPYSIDEKQYNTKKKHGSLQGGAIADVNSITNSLTRLQVVSHETDINEDEEEAHYEDKHVKRALKQRHIGMIALGGTIGTGLFVGISTPLSNAGPVGSLIAYIFMGTIVYFVTQSLGEMATFIPVTSSITVFSKRFLSPAFGVSNGYMYWFNWAITYAVEVSVIGQVIAAATDKVPLAAWIAIFWVIITLMNFFPVKVYGEFEFWVASVKVLAIMGYLIYALIIVCGGSHQGPIGFRYWRNPGAWGPGIISSDKSEGRFLGWVSSLINAAFTYQGTELVGITAGEAANPRKTVPRAINKVVFRIVLFYIMSLFFIGLLVPYNDSRLSASSAVIASSPFVISIQNAGTYALPDIFNAVVLITVVSAANSNVYVGSRVLYSLARTGNAPKQFGYVTRQGVPYLGVVCTAALGLLAFLVVNNNANTAFNWLINISTLAGLCAWLFISLAHIRFMQALKHRGISRDDLPFKAKLMPYGAYYAAFFVTVIIFIQGFQAFCPFKVSEFFTSYISLILLAVVFIGCQIYYKCRFIWKLEDIDIDSDRREIEAIIWEDDEPKNLWEKFWAAVA",–,34 ± 17,–
